Like-named read-outs stand apart in the source and are kept apart here. Values belong to the compound of their own block, whether it stands above or below them.
Experiments:
Human keratinocytes [1] = test: Transglutaminase Assay (TGase I ELISA, procedure for other Examples), normalized to DNA; keratinocyte differentiation; assay type: cell-based; details: for TGase/ DNA (% control) / mean TGase/ DNA x10^5 ± s.d: 72 hour treatment; for mean TGase/ DNA x10^5 ± s.d: n = 3; for activity at 1 µM: 1 micromolar, read-out: % of Control; for % Control: transglutaminase normalized to DNA
Method: (§1) Human keratinocytes, isolated from neonatal foreskin by trypsin treatment were grown in Dulbecco Modification Eagle (DME) Hams F12 (1:1) medium/10% fetal calf serum in the presence of irradiated 3T3 mouse fibroblasts for establishing dividing keratinocyte colonies. Cells were grown under the above condition until their second passage and kept frozen for future use. Frozen second passage keratinocytes were thawed and plated into the above medium and grown for five days before they were switched to a serum-free MCDB 153-based medium keratinocyte growth medium (KGM) from Clonetics Corporation, San Diego, CA, containing 0.15 mM Ca, or keratinocyte serum-free media (KSFM) from GIBCO containing 0.09 mM Ca). On day 7, when the cells were 80-90% confluent, they were trypsinized and plated in the serum-free medium for the various experiments.
During the process of terminal differentiation in the epidermis, a 15nm thick layer of protein, known as the cornified envelope (CE) is formed on the inner surface of the cell periphery. The CE is composed of numerous distinct proteins which have been cross-linked together by the formation of N^ε-(γ-glutamyl) lysine isodipeptide bonds catalyzed by the action of at least two different transglutaminases (TGases) expressed in the epidermis. Transglutaminase I (TGase I) is expressed in abundance in the differentiated layers of the epidermis, especially the granular layer, but is absent in the undifferentiated basal epidermis. Thus TGase I is a useful marker of epidermal keratinocyte differentiation with high TGase I levels indicating a more differentiated state. An ELISA based TGase I assay, using a TGase I antibody, was used to assess the state of differentiation of the cultured keratinocytes in the examples that follow.
Keratinocytes (cultured as described above) were plated in 96 well plates at a density of 3,000 cells per well in 200µl of cell culture media. After incubation for four days, the media was changed to media containing test compounds (six replicates per test). The cells were cultured for a further 72 hours after which time the media was aspirated and the plates stored at -70°C. After the plates were removed from the freezer, the cells were further freezed fractured by freezing and thawing and then washed 3x with PBS. The cells were incubated for one hour at room temperature (R/T) with TBS/5% BSA buffer. Cells were then incubated with 100µl of monoclonal anti-human transglutaminase (IgG) mouse antibody (primary antibody) obtained from Biomedical Technologies Inc. diluted 1:2000 in TBS/1% BSA buffer for two hours at 37°C, and then rinsed six times with wash buffer (TBS/1% BSA/0.05% Tween-20). Cells were next incubated with 100µl of Fab fragment, peroxidase conjugated anti-mouse IgG antibody (secondary antibody) from Amersham diluted 1:4,000 in wash buffer for two hours at 37°C and then rinsed three times with wash buffer and three times with PBS. Cells were incubated with substrate solution (4mg o-phenylene diamine and 3.3µl 30% H2O2 in 10mL 0.1M citrate buffer, pH 5.0) for five minutes at R/T and in darkness (under aluminum foil). The reaction was stopped by the addition of 50µl 4N H2SO4. The absorbance of samples was read at 492nm in the plate reader. Out of the six replicates, four were treated with both antibodies, two were treated only with the secondary antibody (i.e., to determine the background binding of the enzyme conjugated antibody). Transglutaminase I levels were determined by subtracted background from the readings from each treatment and determining the mean ± s.d. for the replicates exposed to both antibodies.
The level of TGase I detected after treatment of the cells could be influenced by cell number, i.e., the greater the number of cells the greater the level of TGase-1 detected. The level of Tgase I was normalized to DNA content of the cells in the same well thus eliminating variation due to differences in cell number. […]

Human keratinocytes [2] = test: 3H-Thymidine incorporation, keratinocyte proliferation; assay type: cell-based; details: 250 nM
Method: as §1
The incorporation of ^3H-thymidine by cultured keratinocytes was used as an assay of keratinocyte proliferation. Thymidine is one of four deoxynucleosides which are the monomeric units of DNA, the universal library of genetic information in the animal kingdom. Prior to cell division of a somatic cell such as a keratinocyte, the complete genome of the cell undergoing cell division is replicated. This involves large scale DNA synthesis by the cell and enables both daughter cells to receive identical copies of the genetic material. When ^3H-thymidine is included in the culture media of keratinocytes which are synthesizing DNA in preparation for cell division then the labelled nucleoside is incorporated into the newly synthesized DNA. The extent of incorporation of ^3H-thymidine into a population of cells is proportional to the rate of DNA synthesis by this population of cells and therefore an indication of their cellular proliferation.
Keratinocytes (that were cultured as described above) were plated in 24 well plates at a density of 20,000 cells per well in 1 ml media. After incubation for four days or until the cells were 60-70% confluent, the media was changed. Test compounds were added (in triplicate) to the wells 24 hours after the media change, and four hours later 1µCi ^3H-Thymidine in 50 µl media was added per well. Cells were incubated for a further 24 hours. Media was removed from the cells, 10% ice cold trichloroacetic acid (TCA) added and plates were incubated on ice for 30 minutes. Cells were washed five times with 5% TCA and allowed to dissolve in 500 µl 0.1M NaOH for at least one hour (usually overnight). The preparations were neutralized with 0.1M HCl; 50 µl of the cell preparation was used to determine total protein content. Disintegrations per minute (DPM) from ^3H labelling of DNA was determined by liquid scintillation counting of 900µl of the cell preparation. Thymidine incorporation results were expressed as DPM/µg protein.

[3] = target: T1, lecithin retinol acyl transferase (LRAT) (Bos taurus, UniProt Q9BGL2); test: In vitro Microsomal Assay, LRAT catalyzed retinol esterification (retinyl laurate formation); assay type: biochemical, bovine
T1 construct: a microsomal fraction isolated from bovine retinal pigment epithelial cells; from tissue; host or cells: bovine retinal pigment epithelium, microsomal fraction
T1 sequence (Q9BGL2 1-230): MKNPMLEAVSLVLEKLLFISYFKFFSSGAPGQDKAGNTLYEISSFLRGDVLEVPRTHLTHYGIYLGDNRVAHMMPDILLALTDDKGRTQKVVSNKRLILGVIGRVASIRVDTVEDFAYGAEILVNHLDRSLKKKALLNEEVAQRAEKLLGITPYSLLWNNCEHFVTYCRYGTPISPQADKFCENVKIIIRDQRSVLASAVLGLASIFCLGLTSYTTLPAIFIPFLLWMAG

[4] = tested on: acyl CoA retinol transferase (ARAT); test: In vitro Microsomal Assay, ARAT catalyzed retinol esterification (retinyl palmitate formation); assay type: biochemical, bovine
Human keratinocytes [5] = test: Transglutaminase Assay (TGase I ELISA, Example 1 procedure), normalized to DNA; keratinocyte differentiation; assay type: cell-based; details: 2.5 x 10^-7M, 2.5 x 10^-8M and 2.5x10^-9M, vs ethanol control
Method: as §1, with “experiments. […]” for “experiments.”
Keratinocytes (cultured as described above) were plated in 96 well plates at a density of 3,000 cells per well in 200 µl media. […] The absorbance of samples was read at 492nm in the plate reader. […] TGase levels were determined by subtracting background from the readings from each treatment and determining mean ± s.d. for the replicates exposed to both antibodies.
The level of TGase I detected after treatment of the cells could be influenced by cell number, i.e., the greater the number of cells the greater the level of TGase-1 detected. […]

[6] = Table 10, 100 µM, read-out: % INHIBITION, LRAT
[7] = Table 2, 100 µM, read-out: % INHIB. LRAT
[8] = Table 5A, 100µM, read-out: % INHIBITION, LRAT

Compound: CC1=C(/C=C/C(C)=C/C=C/C(C)=C/C(=O)O)C(C)(C)CCC1 [retinoic acid]
- TGase/ DNA (% control) (Human keratinocytes [1]; Table 11, 2.5x10^-7M): 42%
- mean TGase/ DNA x10^5 ± s.d (Human keratinocytes [1]; Table 11, 2.5x10^-7M): 22.47 ± 2.31
- TGase/ DNA (% control) (Human keratinocytes [1]; Table 12, 2.5x10^-7M): 32%
- mean TGase/ DNA x10^5 ± s.d (Human keratinocytes [1]; Table 12, 2.5x10^-7M): 16.31 ± 2.58
- TGase/ DNA (% control) (Human keratinocytes [1]; Table 13, 2.5x10^-7M): 52%
- % Control (Human keratinocytes [2]; Table 9A, Experiment #1): 156%
- DPM/Microgram Protein mean (Human keratinocytes [2]; Table 9A, Experiment #1): 3013 DPM/Microgram Protein
- % Control (Human keratinocytes [2]; Table 9B, Experiment #2): 163%
- DPM/Microgram Protein mean (Human keratinocytes [2]; Table 9B, Experiment #2): 1494 DPM/Microgram Protein

Compound: CCCCCCCCCCCC(=O)N(C)CC(=O)O [lauroyl sarcosine]
- inhibition at 100 µM [3, 7]: 0%
- % INHIB. ARAT ([4]; Table 2, 100 µM): 20%

Compound: CCCCCCCCCCCCCCCC(=O)OC/C=C(C)/C=C/C=C(C)/C=C/C1=C(C)CCCC1(C)C [retinyl palmitate]
- activity at […] (Human keratinocytes [1]; Homo sapiens, Keratinocyte, Example 12, 2.5x10^-9M, read-out: keratinocyte TGase I level (% of control)): 93%
- TGase/ DNA (% control) (Human keratinocytes [1]; Table 12, 2.5x10^-8M): 93%
- mean TGase/ DNA x10^5 ± s.d (Human keratinocytes [1]; Table 12, 2.5x10^-8M): 47.32 ± 4.22

Compound: CCCCCCCC/C=C\CCCCCCCC1=NCCN1CCO [oleyl hydroxyethyl imidazoline]
- activity at 1 µM (Human keratinocytes [1]; Homo sapiens, Keratinocyte, Table 4, Exp 1): 80.7%
- activity at 1 µM (Human keratinocytes [1]; Homo sapiens, Keratinocyte, Table 4, Exp 2): 78.2%
- activity at 1 µM (Human keratinocytes [1]; Homo sapiens, Keratinocyte, Table 4, Exp 3): 91.1%

Compound: CC1=C(/C=C/C(C)=C/C=C/C(C)=C/CO)C(C)(C)CCC1 [retinol]
- % Control (Human keratinocytes [1]; Table 7, experiment 1, 0.001 mM): 67%
- TGase/ DNA (% control) (Human keratinocytes [1]; Table 11, 2.5x10^-9M): 91%
- TGase/ DNA (% control) (Human keratinocytes [1]; Table 11, 2.5x10^-9M, listed as Retinol): 92%
- mean TGase/ DNA x10^5 ± s.d (Human keratinocytes [1]; Table 11, 2.5x10^-9M): 48.31 ± 5.31
- TGase/ DNA (% control) (Human keratinocytes [1]; Table 13, 2.5x10^-7M): 90%
- % Control (Human keratinocytes [2]; Table 9A, Experiment #1): 108%
- DPM/Microgram Protein mean (Human keratinocytes [2]; Table 9A, Experiment #1): 2082 DPM/Microgram Protein
- % Control (Human keratinocytes [2]; Table 9B, Experiment #2): 107%
- DPM/Microgram Protein mean (Human keratinocytes [2]; Table 9B, Experiment #2): 974 DPM/Microgram Protein
- Transglutaminase levels normalized to DNA content of the cells (Human keratinocytes [5]): decrease in transglutaminase level was dose dependent

Compound: CC(=O)c1cc2c(cc1C)C(C)(C)C(C)C2C(C)C (stereo not drawn) [traseolide]
- % INHIBITION, ARAT ([4]; Table 5A, 100µM): 41%

Compound: CCCCCCCCCCCC1=NCCN1CCO [Lauryl, lauryl hydroxyethyl imidazoline]
- inhibition at 10 µM ([3]; Table 3, 10 micromolar, read-out: % INHIB. LRAT): 0%
- inhibition at 100 µM ([3]; Table 3, 100 micromolar, read-out: % INHIB. LRAT): 47%

The next lines start with results.

- inhibition at 100 µM [3, 6]: 14%
- % INHIBITION, ARAT ([4]; Table 10, 100 µM): 33%
Compound: O=C1C[C@@H](c2ccc(O)cc2)Oc2cc(O)cc(O)c21 [Naringenin, naringenin]
- TGase/ DNA (% control) (Human keratinocytes [1]; Table 11, 10^-7M): 94%
- mean TGase/ DNA x10^5 ± s.d (Human keratinocytes [1]; Table 11, 10^-7M): 49.84 ± 2.76
- TGase/ DNA (% control) (Human keratinocytes [1]; Table 12, 10^-8M): 89%
- mean TGase/ DNA x10^5 ± s.d (Human keratinocytes [1]; Table 12, 10^-8M): 45.01 ± 1.90

- inhibition at 100 µM [3, 6]: 14%
- % INHIBITION, ARAT ([4]; Table 10, 100 µM): 25%
Compound: O=c1c(O)c(-c2ccc(O)c(O)c2)oc2cc(O)cc(O)c12 [Quercetin, quercetin]

- inhibition at 100 µM [3, 7]: 0%
Compound: CCCCCCCCC=CCCCCCCCC(=O)NCCC[N+](C)(C)CC(=O)[O-] [oleamidopropyl betaine]

- inhibition at 100 µM [3, 8]: 77%
Compound: CCC(=O)/C=C/C1C(C)=CCCC1(C)C (stereo not drawn) [alpha methyl ionone]

- inhibition at 100 µM [3, 8]: 92%
- % INHIBITION, ARAT ([4]; Table 5A, 100µM): 80%
Compound: C/C=C/C(=O)C1CCC(C)(C)C=C1C (stereo not drawn) [isodamascone]

- inhibition at 100 µM [3, 8]: 49%
Compound: CCOC(=O)C1=C(C)C=CCC1(C)C [ethyl saffranate]

- inhibition at 100 µM [3, 7]: 0%
Compound: CCCCCCCCC=CCCCCCCCC[N+](C)(C)[O-] [oleamine oxide]

- % INHIBITION, ARAT ([4]; Table 5A, 100µM): 83%
- % INHIBITION, ARAT ([4]; Table 5B, 10µM): 67%
Compound: C/C=C/C(=O)C1C(C)=CCCC1(C)C (stereo not drawn) [alpha damascone]
- % Control (Human keratinocytes [1]; Table 7, experiment 1, 1 mM): 92%
- % Control (Human keratinocytes [1]; Table 7, experiment 2, 1 mM): 86%
